Measured values taken from US5445937A, “Detection of Alzheimer's disease and other diseases using an improved photoaffinity labeling method” (The University of Kentucky Research Foundation, priority 1993, dated 1995).
Where two headings read alike, the source gives them in different places.

Assays:
[1] = target: T1, Purified GS (glutamine synthetase) (Homo sapiens, UniProt P15104); test: Photoaffinity labeling (photoinsertion) of purified glutamine synthetase; assay type: binding, sheep
T1 construct: purified from sheep brain; purchased Sigma; host or cells: sheep brain
T1 sequence (P15104 whole entry): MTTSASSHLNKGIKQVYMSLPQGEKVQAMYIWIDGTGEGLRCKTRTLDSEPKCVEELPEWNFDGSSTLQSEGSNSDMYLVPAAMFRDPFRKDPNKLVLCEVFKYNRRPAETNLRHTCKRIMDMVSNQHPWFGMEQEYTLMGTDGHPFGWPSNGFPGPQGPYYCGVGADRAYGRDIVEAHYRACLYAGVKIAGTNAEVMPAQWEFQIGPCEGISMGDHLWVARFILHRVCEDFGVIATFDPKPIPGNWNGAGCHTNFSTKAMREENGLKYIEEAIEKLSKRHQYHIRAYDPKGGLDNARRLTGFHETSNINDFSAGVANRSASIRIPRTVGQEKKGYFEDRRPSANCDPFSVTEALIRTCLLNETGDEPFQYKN
Protocol: (§1) In each experiment, photoprobe was added to the cerebral spinal fluid sample and vortexed for 6 seconds. Each treated sample was then allowed to mix for an additional 24 seconds at room temperature before exposure to ultraviolet (UV) light.
(§2) The treated samples were placed on ice and exposed to UV light for 45 seconds. The UV light source, a hand-held UV lamp with an intensity of 6200 μW/cm^2, was positioned 1 cm from the sample. The UV activation of the photoprobe labeled samples was always conducted at 0° C.
(§3) Each sample was fractionated by 10% SDS-PAGE, run over a period of 21/2 to 3 hours, with constant amperage of 35 mA and an initial voltage of 140 volts. Since all of the proteins were very well separated on a 10% gel, a gradient was not necessary.
(§4) The quantity of protein, as well as the amount of the radioactivity incorporated into each protein, was quantified by densitometric scans of the exposed X-ray film, or of the stained gel, or by liquid scintillation spectrometry of the protein band excised from the gel. Significance was determined by analysis of variance at a rho level below […].
(§5) 1. Purified GS (purchased from Sigma, purified from sheep brain) comigrated on SDS-PAGE identically with the 42,000 Mr protein in the cerebral spinal fluid from Alzheimer's disease patients.
(§6) 2. Purified GS and the 42 kD protein found in the cerebral spinal fluid from Alzheimer's disease patients had the same approximate saturation and Kd values for binding ATP, 8-azido-ATP and 2-azido-ATP. […] Therefore, both GS and the 42 kD protein in the cerebral spinal fluid from Alzheimer's disease patients had the same nucleotide binding properties.
(§7) Purified glutamine synthetase from sheep brain was photolabeled by the above-described method, but under various ionic conditions.

[2] = system: T2, Purified GS (glutamine synthetase); test: as above; assay type: binding, sheep; settings: purified GS
T2 construct: purified from sheep brain; purchased Sigma; host or cells: sheep brain
T2 sequence (P15104 whole entry): as above
Protocol: as §1, §2, §3, §4, §5, §6, §7

[3] = target: T3, 42 kD protein found in the cerebral spinal fluid from Alzheimer's disease patients (Homo sapiens, UniProt P15104); test: Photoaffinity labeling (photoinsertion) of the 42 kD protein in cerebral spinal fluid from Alzheimer's disease patients; assay type: binding
T3 construct: 42 kD protein found in the cerebral spinal fluid from Alzheimer's disease patients; from tissue; host or cells: cerebral spinal fluid of Alzheimer's disease patients
T3 sequence (P15104 2-373 limits assumed): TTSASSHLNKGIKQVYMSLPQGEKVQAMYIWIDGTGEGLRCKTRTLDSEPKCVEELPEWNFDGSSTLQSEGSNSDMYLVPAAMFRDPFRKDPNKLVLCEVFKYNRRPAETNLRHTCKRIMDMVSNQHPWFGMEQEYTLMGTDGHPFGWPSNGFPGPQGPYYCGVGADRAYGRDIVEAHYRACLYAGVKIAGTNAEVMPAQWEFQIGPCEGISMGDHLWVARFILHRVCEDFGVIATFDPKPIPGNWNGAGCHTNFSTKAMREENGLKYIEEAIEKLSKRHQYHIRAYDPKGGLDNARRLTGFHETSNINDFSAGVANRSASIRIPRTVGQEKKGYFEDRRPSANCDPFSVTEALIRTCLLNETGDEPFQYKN
Protocol: Each assay was performed on 15 μl of cerebral spinal fluid. Although the amount of cerebral spinal fluid tested remained constant for each experiment, the protein concentration of each sample varied to some degree.
Each cerebral spinal fluid sample was photolabeled with [^32 P]8N3 ATP to identify the 42,000 Mr protein. The cerebral spinal fluid sample was comprised of cerebral spinal fluid, buffer, and water. The photoprobes used in each experiment were prepared by the inventor according to the procedures disclosed by Potter and Haley in Meth. in Enzymol., 91:613-633 (1983). Probes were also available commercially through ICN Radiochemicals 2727 Campus Drive, Irvine, Calif. 92715.
as §1, §2, §3, §4, §6

[4] = system: glutamine synthetase; test: Enzymatic activity of glutamine synthetase; assay type: biochemical, sheep; settings: 10 μM

## [N-]=[N+]=Nc1nc(N)c2ncn([C@@H]3O[C@H](COP(=O)(O)OP(=O)(O)OP(=O)(O)O)[C@@H](O)[C@H]3O)c2n1 [2-azido-ATP, 2-azidoadenosine 5'-triphosphate]
[1]; purified GS
  saturation of photoinsertion: 40 to 50 µM
[2]
  amount of photo-incorporation on a mole to mole basis relative to [γ32P]8N3 ATP: greater
[3]; 42 kD protein in AD CSF
  amount of photo-incorporation on a mole to mole basis relative to [γ32P]8N3 ATP: greater
  saturation of photoinsertion: 40 to 50 µM
[3]; 42 kD protein in AD CSF, approximate Kd from photoinsertion, read-out: half maximal photoinsertion
  Kd: ~10 µM

## [N-]=[N+]=Nc1nc2c(N)ncnc2n1[C@@H]1O[C@H](COP(=O)(O)OP(=O)(O)OP(=O)(O)O)[C@@H](O)[C@H]1O [8-azido-ATP, 8-azidoadenosine 5'-triphosphate]
[1]; purified GS
  saturation of photoinsertion: 40 to 50 µM
[3]
  Kd: ~10 µM
[3]; 42 kD protein in AD CSF
  saturation of photoinsertion: 40 to 50 µM

## Nc1ncnc2c1ncn2[C@@H]1O[C@H](COP(=O)(O)OP(=O)(O)OP(=O)(O)O)[C@@H](O)[C@H]1O [ATP, adenosine triphosphate]
[1]; purified GS, competition by natural nucleotide
  effect on photolabeling with 8- or 2-azido-ATP: decreased the photolabeling
[3]; 42 kD protein in AD CSF, competition by natural nucleotide
  effect on photolabeling with 8- or 2-azido-ATP: decreased the photolabeling

## [Cl][Mn][Cl] [MnCl2]
[1]; purified sheep brain GS, 10 μM, FIG. 5
  effect on photolabeling of GS by 8N3 ATP photolabel: increases dramatically
[4]
  effect on enzymatic activity of glutamine synthetase: increases the enzymatic activity

## O=C(O)O [ammonium bicarbonate]
[1]; purified GS, ligand added at 100 mM
  enhancement of binding/photolabeling by [32P]2N3 ATP: about 5 fold
[3]; 42 kD CSF protein, ligand added at 100 mM
  enhancement of binding/photolabeling by [32P]2N3 ATP: about 5 fold
